Patent US10130674B2, “Modified peptide that reduces pain in peripheral neuropathy” (Creative Bio-Peptides, priority 2010, dated 2018)

How the values were obtained:
[1] = data not shown
[2] = data not shown; remark: listed apart in the source
[3] = system: CCR5-specific virus (HIVBaL); assay: In vitro CCR5 receptor viral infectivity assay (GHOST R5 reporter cells); format: cell-based, HIV; conditions: GFP reporter
Description: This virus uses CCR5 receptor binding to infect its host cell.
In Vitro CCR5 Receptor Viral Infectivity Assay
A CCR5-specific virus (HIVBaL) was added 1 hr later. CCR5 receptor viral infectivity was tested on CCR5-containing cells with a Green Fluorescent Protein (GFP) reporter that responds to viral infection.
The experiment, which was repeated 5 times in various cell systems, was performed in triplicate and bars correspond to standard error of the mean. Data were analyzed by a nonlinear fit using GraphPad Prism 5.

[4] = Nerve damage neuropathic pain, DAPTA pilot study; format: in vivo, rat
[5] = target: CCR5 (Homo sapiens, UniProt P51681); conditions: cited from earlier work
CCR5, sequence (P51681 whole entry): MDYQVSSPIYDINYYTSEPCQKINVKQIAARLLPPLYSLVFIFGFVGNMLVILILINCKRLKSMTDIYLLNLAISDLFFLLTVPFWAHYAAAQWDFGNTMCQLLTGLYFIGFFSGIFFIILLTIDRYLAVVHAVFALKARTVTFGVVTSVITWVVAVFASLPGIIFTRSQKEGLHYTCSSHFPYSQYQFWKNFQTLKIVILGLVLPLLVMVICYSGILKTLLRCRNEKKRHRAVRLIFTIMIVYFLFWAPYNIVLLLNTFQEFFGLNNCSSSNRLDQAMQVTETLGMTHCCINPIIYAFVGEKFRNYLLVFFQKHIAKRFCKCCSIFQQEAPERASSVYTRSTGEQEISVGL

Molecule	paw withdrawal threshold in naïve animals [1]	paw withdrawal latency in naïve animals [2]	block of infection by CCR5 using virus (HIVBaL) [3]	neuropathic pain development ([4]; pilot study, 0.01 mg/kg, not shown)	pain in the paw ipsilateral to nerve damage ([4]; rats)	affinity for R5 [5]
C[C@H](O)[C@@H](N)C(=O)N[C@@H](C(=O)N[C@H](CC(N)=O)C(=O)N[C@H](Cc1ccc(O)cc1)C(=O)N[C@@H](C(=O)O)[C@H](C)O)[C@H](C)O [All D TTNYT]	did not alter	did not alter	–	–	–	–
D-Ala-Peptide T-amide [DAPTA]	–	–	block CCR5 receptors	inhibited neuropathic pain development	attenuated pain	femtomolar range
